Entries after “also recorded” stand apart in the source; their conditions may differ. Peptide text beside a SMILES is read from it.
What was measured:
[1] = tested on: multidrug resistance-associated transport proteins in Hep-2 cells; test: rhodamine 123 efflux rate from Hep-2 cells
Procedure: While studying the effect of the inhibitors on the release of Rh123, to the cuvette after several minutes of the normal excretion of the stainer we added the inhibitor in the required concentration. Determining the control and inhibited constants of rhodamine excretion rates on one plate decreases the error of determining their ratio, necessary for obtaining the R value. […] The total amount of rhodamine in the cells was determined by the difference of the fluorescence levels after adding digitonin and before adding cells to the cuvette. The relative amount of Rh123 in the cells (N) was determined according to the following formula: N=1−{It−I0/Imax−I0}, where It, I0, Imax are the values of fluorescence of Rh123 in the medium at the time moments t, 0 and the peak fluorescence after adding digitonin, respectively.
The effect of each concentration of the agents on Rh123 excretion was determined in several experiments.

breast cancer T4cN2M0 = test: clinical case, radiotherapy and CMF polychemotherapy with hexapeptide intranasal spray (Example 8); assay type: in vivo, human
Description: Onto the area of the left breast from two tangential opposed fields and with the figured field onto the zones of regional lymph outflow on the left radiotherapy was begun using linear accelerator (LU-20-SL with the deceleration-radiation energy of 6 MeV) in the mode of average dose fractionating, at 3 Gy daily 5 times a week onto the area of the tumour up to the total focal dose (TFD) 45 Gy equivalent to the mode of the conventional fractionation consisting of 2 Gy a day, with TFD 60 Gy, and onto the zones of regional lymph outflow on the left (supraclavicular, subclavicular, axillary and parasternal sites) at a single dose of 3 Gy up to the TFD 33-36 Gy equivalent to 44-48 Gy of the conventional fractionation.
The patient's state after the irradiation course was satisfactory, with the tumour ulceration being at the scarring stage and virtually no discharge. Two weeks later, polychemotherapy was begun according to the CMF regimen carried out for 4 weeks once a week. During 5 days prior to commencing chemotherapy, the person daily received the hexapeptide in the form of an intranasal dosed spray […] at a single dose of 100 μg. The CMF regimen included intravenous drip administration of 1 g of 5-fluorouracil and 40 mg of methotrexate and intramuscular administration of 1 g cyclophosphane. During polychemotherapy, the patients daily received the hexapeptide in the form of an intranasal dosed spray, with the single dose equalling 100 μg.
A repeat course of CMF. The patient received intravenously 40 mg of methotrexate and 1 g of 5-fluorouracil and intramuscularly 1 g of cyclophosphane. The state after polychemotherapy was satisfactory. A cicatrix formed on the site of the previous breast ulceration. Regional lymph nodes were not perceived, the breast was soft to the touch, with no fresh infiltrates. On the mammograms, the tumour node as compared with the findings of mammography obtained at the beginning of treatment had decreased to 5 mm in diameter. Then sequentially a course of polychemotherapy was carried out according to the same regimen and in the same doses. During 5 days prior to commencing chemotherapy, the patient daily received hexapeptide in the form of an intranasal dosed spray 5 times a day at a single does of 100 μg. During polychemotherapy, the patient daily received hexapeptide in the form of an intranasal dosed spray 5 times a day at a single does of 100 μg.

[2] = tested on: multidrug resistance proteins in the Hep-2 cells; test: calcein formation rate in Hep-2 cells with Co2+ ions; assay type: cell-based, human; design: calcein formation rate increment ratio: dose or concentration left out as unconfirmed; settings: Co2+ ions present
Hep-2 cells = test: growth of Hep-2 tumour cells (trypan blue count); assay type: cell-based, human; settings: 1 μg/ml, three days
Procedure: Human laryngeal cancer cells Hep-2 in DMEM medium supplemented with 10% foetal calf serum and 40 μg/ml gentamycin were inoculated in 2-ml penicillin-containing vials, 200 thousand per each vial. The hexapeptide at a dose of 1 μg/ml was added 3 hours after cell inoculation (when they had already adhered to glass) and left in the medium for the whole period of incubation. Three days after inoculation, the cells were detached from glass with trypsin, followed by calculating the number of the living cells: unstained with a 0.04% solution of trypan blue.

[3] = tested on: stage III oesophageal cancer; assay type: in vivo, human
Procedure: Clinical diagnosis: stage III oesophageal cancer (T3-4N0-2MOP3). At admission, the patient's general condition of moderate severity. The laboratory indices of the total blood count without pronounced alterations. Noted was a considerable disbalance of the indices of the oxidative-antioxidative system on the background moderate-degree immunosuppression. The state of the oxidative-antioxidative system in the patients was assessed by intensity of lipid peroxidation via measuring blood serum concentration of malonic dialdehyde (MDA, μmol/L) and endogenous antioxidants: lactoferrin (LF, mg/L), caeruloplasmin (CP, conventional units), and the antioxidant enzyme catalase (CAT, conventional units). The analysis of percentage content of the main subpopulations of T-lymphocytes was carried out to superficial receptors of CD3 (T-lymphocytes), CD4 (T-helpers/inducers), CD8 (T-suppressors/cytotoxic lymphocytes), CD16 (natural killers), CD25 (activated lymphocytes expressing the receptor to interleukin-2), CD72 (B-lymphocytes). […] At the same time, the indices of the lymphocytic link were virtually within the normal values. Since CP and LF are proteins of the acute phase of inflammation, an increase in the blood serum reflected the presence of an inflammatory process accompanying the development of oesophageal cancer. Prior to chemoradiotherapy, the patient received intramuscular administration of the hexapeptide daily at a single dose of 1 ml of 0.1% solution 5 times a day for 5 days. Comprehensive chemoradiotherapy was carried out according to the following regimen: 750 mg of 5-fluorouracil (5-FU) was administered intravenously for 5 days (total dose 3,750 mg), two days after the end of administration of 5-FU, the patients was irradiated according to the regimen of dynamic fractionation of the dose at a single dose of 4 Gy on the background of intravenous administration of cysplastin at a dose of 30 mg for 3 days (total dose of cysplastin 90 mg, total focal dose 12 Gy). During the whole period of chemoradiotherapy, the patients was given hexapeptide at a single dose of 100 μg twice daily (in the morning and evening). Commencing from day 11, radiotherapy was continued in the mode of the classical fractionated dose, with the single dose equalling 2 Gy (total focal dose 40 Gy).

[4] = preclinical and clinical studies: toxic reaction and side effects; assay type: in vivo
[5] = tested on: human laryngeal cancer cells Hep-2; test: survival of Hep-2 cells exposed to arsenate (crystal violet); assay type: cell-based
Procedure: The human laryngeal cancer cells Hep-2 in Dulbecco's modified Eagle's medium (hereinafter referred to as DMEM) (Sigma) supplemented with 10% foetal calf serum (Sigma) and 40 μg/ml of gentamycin (Sigma) were sown in a 96-well culture plate, 0.1 ml per well, at a concentration of 50,000/ml, followed by adding the agents being examined and incubating for 72 hour at 37° C. in an atmosphere of 5% CO2 in air. After incubation, the cells were stained with 0.02% crystal violet solution (Sigma) in 20% ethanol for 10 minutes followed by discarding the stainer solution, washing the cells with water and adding a 0.1% SDS solution for the extraction of the stainer from the cells. The optical density was measured at 570 nm on the spectrophotometer Multiscan Plus. The effect was determined by the formula: No/Nk=(Do−D)/(Dk−D) 100%, where Do, Dk, D are optical densities in the experiment, control, and the background one, respectively, and No/Nk is the cell survival rate: the number of the live cells in the experiment in relation to the control.

P-gp = test: calcein formation rate from calcein AM in R388VR cells without Co2+; settings: up to 1.2 μM
Description: The rate of calcein formation in the dish with calcein AM added without Co2+ ions makes it possible to determine the activity of the transport proteins expelling calcein AM out of cells, rather than that of the proteins capable of transporting calcein from the cells (MRP), since in this case total calcein is registered: both intra- and extracellular.

MRP [6] = biological target: T1, MRP (Mus musculus, UniProt O35379); test: calcein formation rate in R388VR cells in the presence of Co2+ (extracellular calcein quenching); settings: presence of Co, 12 μM
T1 sequence (O35379 whole entry): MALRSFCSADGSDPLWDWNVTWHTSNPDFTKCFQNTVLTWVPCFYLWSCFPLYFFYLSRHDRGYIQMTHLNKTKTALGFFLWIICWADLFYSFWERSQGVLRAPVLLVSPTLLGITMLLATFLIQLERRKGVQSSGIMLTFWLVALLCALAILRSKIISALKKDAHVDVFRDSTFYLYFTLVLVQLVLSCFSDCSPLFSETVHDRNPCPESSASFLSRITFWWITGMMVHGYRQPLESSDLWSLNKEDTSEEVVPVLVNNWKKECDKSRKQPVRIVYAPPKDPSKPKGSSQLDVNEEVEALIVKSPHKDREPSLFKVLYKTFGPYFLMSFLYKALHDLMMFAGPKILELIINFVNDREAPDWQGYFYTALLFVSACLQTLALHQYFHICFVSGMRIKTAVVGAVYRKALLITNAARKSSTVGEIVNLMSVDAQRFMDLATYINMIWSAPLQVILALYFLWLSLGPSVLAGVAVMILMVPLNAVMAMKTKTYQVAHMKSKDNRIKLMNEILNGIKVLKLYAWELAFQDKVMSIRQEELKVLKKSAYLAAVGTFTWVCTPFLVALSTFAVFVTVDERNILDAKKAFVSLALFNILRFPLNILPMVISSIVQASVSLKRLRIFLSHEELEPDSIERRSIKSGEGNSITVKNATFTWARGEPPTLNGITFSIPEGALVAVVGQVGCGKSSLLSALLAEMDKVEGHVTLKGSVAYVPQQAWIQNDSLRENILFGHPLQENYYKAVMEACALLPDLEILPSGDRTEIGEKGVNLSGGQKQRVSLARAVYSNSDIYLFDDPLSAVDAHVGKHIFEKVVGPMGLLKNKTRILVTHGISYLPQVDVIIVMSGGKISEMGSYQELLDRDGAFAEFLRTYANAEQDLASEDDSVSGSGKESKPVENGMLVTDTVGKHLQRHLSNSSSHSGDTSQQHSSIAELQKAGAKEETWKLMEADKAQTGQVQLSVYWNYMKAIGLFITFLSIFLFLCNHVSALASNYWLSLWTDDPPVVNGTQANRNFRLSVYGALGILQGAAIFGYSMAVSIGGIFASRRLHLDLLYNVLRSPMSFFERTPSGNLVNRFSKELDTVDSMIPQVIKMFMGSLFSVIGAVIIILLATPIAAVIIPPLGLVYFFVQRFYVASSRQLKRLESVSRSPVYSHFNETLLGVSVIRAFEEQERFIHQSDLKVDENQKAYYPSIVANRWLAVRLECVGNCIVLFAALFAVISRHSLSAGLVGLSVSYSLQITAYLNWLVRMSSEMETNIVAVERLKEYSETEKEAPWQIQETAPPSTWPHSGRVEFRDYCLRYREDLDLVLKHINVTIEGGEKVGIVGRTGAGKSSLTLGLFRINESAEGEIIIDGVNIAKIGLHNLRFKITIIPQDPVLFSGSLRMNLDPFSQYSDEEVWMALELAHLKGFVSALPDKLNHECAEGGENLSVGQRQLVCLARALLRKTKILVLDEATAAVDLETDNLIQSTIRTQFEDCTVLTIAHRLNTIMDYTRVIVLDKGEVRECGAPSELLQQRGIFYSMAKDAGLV

[7] = tested on: squamous-cell oesophageal cancer; assay type: in vivo, human
Procedure: The disease was manifested by retrosternal pain, weakness, weight loss. […] Prior to chemoradiotherapy, the patient was given the hexapeptide in the form of a suppository at a dose of 5 mg five times daily for 5 days. The first stage of combined-modality treatment consisted of two courses of polychemotherapy. During the whole period of chemoradiotherapy, the patient received treatment with the proposed agent in the form of rectal suppositories 5 μg twice daily (in the morning and evening).

local irritating effect = settings: in vivo
[8] = solubility of the active principle; assay type: physicochemical
[9] = tested on: stage III cervical carcinoma; test: clinical case, chemoradiotherapy with hexapeptide (Example 5); assay type: in vivo, human
Procedure: Patient. Clinical diagnosis: stage III cervical carcinoma (T3NX-1M0). Examination of the patient included clinical and laboratory assessment both at admission and during treatment. […] general condition was of moderate severity. […] The percentage of CD3, CD4, CD8, CD16-positive cells was decreased relative to the average statistical normal values 2-fold. The person prior to antineoplastic treatment had received a course of 5-time administration of the hexapeptide in the form of 1 ml of 0.005% solution subcutaneously daily for 5 days. Chemoradiotherapy was carried out according to the regimen: 500 mg of 5-fluorouracil (total dose 2,500 mg). During the whole course of chemoradiotherapy, the person received 1 ml of 0.005% solution of the hexapeptide (biopoetin) 5 times daily. Two days after discontinuation of 5-fluorouracil, the patient underwent remote irradiation at a single dose of 4 Gy on the background of intravenous administration of 30 mg of cysplastin for 3 days (total dose of cysplastin amounting to 90 mg). Then radiotherapy was continued in the mode of a daily multifractionated dose. Irradiation was carried out up to a focal dose of 20 Gy onto the area of the primary focus and zones of regional metastatic spreading, followed by additional intracavitary gamma-therapy (10 fractions 5 Gy each) and remote irradiation was continued onto the zones of parametrial metastatic spreading up to the total dose amounting to 44 Gy.

MRP [10] = biological target: T1, MRP; test: calcein efflux rate from preliminarily calcein-loaded R388VR cells
[11] = in vivo
tumour cells = settings: calcium channel blocker; cited from earlier work

Compound: NCCCC[C@H](NC(=O)CNC(=O)[C@H](Cc1c[nH]cn1)NC(=O)[C@@H](N)CCCCN)C(=O)N[C@@H](Cc1c[nH]cn1)C(=O)NCC(=O)O [hexapeptide, lysyl-histidyl-glycyl-lysyl-histidyl-glycine] (H-KHGKHG-OH)
- optimal concentration of maximal inhibition of Rh123 excretion [1]: 1 ng/mL
- R value (Rh123 excretion inhibition) ([1]; 1 ng/ml): 3.2
- development of MDR (breast cancer T4cN2M0; 5th course of CMF): No development of MDR was noted
- tumour node diameter on mammograms (breast cancer T4cN2M0; after repeat course of CMF): 5 mm
- tumour node size on mammograms (breast cancer T4cN2M0; before fourth course of polychemotherapy): 3.8 cm
- relapse or metastases at examination (breast cancer T4cN2M0; clinical and roentgenological study, check-up 15 months after the beginning of treatment): no findings suggesting either a breast tumour relapse or metastases; also recorded: no signs of the disease's relapses
- tolerance of chemoradiotherapy / polychemotherapy (breast cancer T4cN2M0; intranasal dosed spray, CMF regimen): tolerated chemoradiotherapy satisfactorily; also recorded: well tolerated
- calcein formation rate increment ratio [2]: 2.6
- increase of rate of calcein formation in cells ([2]; 1.2 nM): twofold
- allergic activity (allergic activity): neither allergic nor mutagenic activity
- effect on growth of Hep-2 tumour cells (Hep-2 cells): virtually does not influence the growth
- disease relapses ([3]; 12-month follow-up): no disease relapses
- indices of natural cellular and T-lymphocytic immunity, acute inflammation phase proteins ([3]; human, in vivo): did not alter substantially
- symptoms of MDR ([3]; with chemoradiotherapy): No symptoms of MDR were observed
- tumour outcome ([3]; with chemoradiotherapy): complete resorption of the tumour
- toxic reaction and side effects [4]: neither induces a pronounced toxic reaction nor leads to development of side effects
- increase in sensitivity of Hep-2 cells to arsenate ([5]; 1.2 nM): 3 fold
- effect on sensitivity to arsenate and survival of Hep-2 cells ([5]; 50 μM arsenate): increases sensitivity of the tumour cells to the cytostatic preparation arsenate and inhibits survival of the Hep-2 cells
- effect on calcein formation rate (P-gp): does not act upon the calcein formation rate
- mutagenic activity (mutagenic activity): neither allergic nor mutagenic activity
- increase of calcein formation rate (MRP [6]): double
- tumour at check-up examinations ([7]; after polychemotherapy): no oesophageal tumour perceived
- metastases into lymph nodes ([7]; histology of subtotal oesophageal resection): No metastases into lymph nodes were detected
- manifestations of toxicosis during polychemotherapy ([7]; human, in vivo): No markedly pronounced manifestations of toxicosis were observed
- local irritating effect (local irritating effect): no local irritating effect
- solubility in alcohol ([8]; alcohol): not alcohol- or chloroform-soluble
- solubility in chloroform ([8]; chloroform): not alcohol- or chloroform-soluble
- solubility in isotonic sodium chloride solution ([8]; isotonic sodium chloride solution): readily soluble
- solubility in water ([8]; water): readily soluble
- MDR development [9]: No events of MDR development were observed
- indices of immunity and total blood count after chemoradiotherapy [9]: did not virtually alter
- tumour outcome [9]: complete resorption of the tumour
- side reactions during chemoradiotherapy ([9]; 1 ml of 0.005% solution subcutaneously): No pronounced side reactions were observed
- decrease of calcein excretion rate (MRP [10]; 1.2 nM): 1.5 fold
- calcein excretion rate inhibition ratio (MRP [10]; 120 nM): 2.6
- death of laboratory animals after a single dose [11]: caused no death

Compound: COc1ccc(CCN(C)CCCC(C#N)(c2ccc(OC)c(OC)c2)C(C)C)cc1OC (stereo not shown) [verapamil]
- dose exhibiting in vitro MDR inhibiting activity (tumour cells): approximately 10 μM

From US20160022762A1, “Agent for Eliminating Multidrug Resistance” (priority 2008, published 2016)
